In ChEMBL document CHEMBL1130616, “Synthesis and biological activity of glutamic acid derivatives” (Bioorg Med Chem Lett, 1998):

How the values were obtained:
Format in all cases: functional
Rattus norvegicus [1] = species on record: Rattus norvegicus; test: Emax by measuring IP1 accumulation using rat fore brain synaptoneurosomes
Rattus norvegicus [2] = species on record: Rattus norvegicus; test: Effective concentration by measuring IP2 accumulation using rat fore brain synaptoneurosomes
Rattus norvegicus [3] = species on record: Rattus norvegicus; test: Effective concentration by measuring IP1 accumulation using rat fore brain synaptoneurosomes
Rattus norvegicus [4] = species on record: Rattus norvegicus; test: Emax by measuring IP2 accumulation using rat fore brain synaptoneurosomes

Row | SMILES | Emax (Rattus norvegicus [1]) [%] | EC50 (Rattus norvegicus [2]) [µM] | EC50 (Rattus norvegicus [3]) [µM] | Emax (Rattus norvegicus [4]) [%]
1 | C[C@@](N)(C(=O)O)c1ccc(C(=O)O)cc1.N[C@@]1(C(=O)O)CC[C@@H](C(=O)O)C1 | 269 | 224 | 109 | 643
2 | N[C@@H](CC(C=O)CCCCN1C(=O)c2ccccc2C1=O)C(=O)O.N[C@@]1(C(=O)O)CC[C@@H](C(=O)O)C1 (some centres undefined) | 264 | 79 | 37 | 543
3 | C[C@@](N)(C(=O)O)c1ccc(C(=O)O)cc1.N[C@@H](Cn1oc(=O)[nH]c1=O)C(=O)O | 225 | 1.34 | 0.63 | 358
4 | N[C@@H](CC(C=O)CCCCN1C(=O)c2ccccc2C1=O)C(=O)O.N[C@@H](Cn1oc(=O)[nH]c1=O)C(=O)O (some centres undefined) | 216 | 0.27 | 0.14 | 359
5 | N[C@@]1(C(=O)O)CC[C@@H](C(=O)O)C1 | 284 | 38 | 17 | 700
6 | N[C@@H](Cn1oc(=O)[nH]c1=O)C(=O)O [QUISQUALATE] | 240 | 0.32 | 0.1 | 524
